# Reference: publication PMC4038399, “Experimental validation of [sequence]^comb virtual ligand screening results for eight proteins yields novel nanomolar and micromolar binders” (Journal of Cheminformatics, 2014)
# pKd: −log10 of the molar value. Like-named read-outs stand apart in the source and are kept apart here.
# Tests used:
# [1] = molecular target: T1, 1000006: catalytic domain of protein tyrosine phosphatase (2G59) (Homo sapiens, UniProt Q16827); assay: Thermal shift (thermal melt) assay, Sypro orange; assay type: binding, H. sapiens; conditions: for Q (quality score): ratio ΔFmelt/ΔFtotal
# T1 construct: the catalytic domain of PTP from H. sapiens (PDB ID: 2G59) (1000006); New York structural genomics consortium (gift)
# T1 sequence (Q16827 938-1195 limits assumed): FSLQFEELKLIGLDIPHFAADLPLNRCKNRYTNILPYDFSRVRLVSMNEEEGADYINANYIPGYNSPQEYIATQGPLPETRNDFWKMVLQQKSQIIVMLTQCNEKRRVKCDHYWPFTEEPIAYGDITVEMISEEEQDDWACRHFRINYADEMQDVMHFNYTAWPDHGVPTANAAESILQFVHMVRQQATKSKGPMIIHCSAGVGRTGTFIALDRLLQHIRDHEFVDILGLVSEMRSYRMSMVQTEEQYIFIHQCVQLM
# Protocol: (§1) High throughput thermal shift assays were carried out following established guidelines (Additional file 1: Table S1). Protein melting curves were obtained from samples aliquoted in 96-well plates using a RealPlex quantitative PCR instrument from Eppendorf (Eppendorf, NY, USA), with Sypro orange dye from Invitrogen as the fluorescent probe. A uniform final concentration of 5 X (supplied as a 5000 X stock solution) was used in all experiments. The dye was excited at 465 nm and emission recorded at 580 nm using the instrument’s filters. A heating ramp of 1°C/min from 25°C to 74°C was used, and one data point acquired for each degree increment. For standardization, different buffers and pH were checked. Thereafter, 100 mM HEPES pH 7.3 and 150 mM NaCl were used in all unfolding experiments. The volume of each reaction was 20 μl, and appropriate dye and protein controls were included. All experiments were done with a minimum of two replicates, with the mean value considered for further analysis. Several drugs/small molecules interact with Sypro orange and lead to aberrant signal enhancements. An additional control to rule out drug-dye interaction was carried out with all the constituents kept constant except for the protein of interest. The protein/protein-drug curves were reported after subtracting the respective dye alone/drug-dye curves.
# (§2) Each melting curve was assigned a quality score (Q), the ratio of the melting-associated increase in fluorescence (ΔFmelt) to the total fluorescence range (ΔFtotal). Q = 1 is a high-quality curve, while Q = 0 indicates no thermal transition. Though an arbitrary Q value cutoff was not applied to judge curve quality, the curves were manually curated with Q values reported. […] These were ignored (see Table 1).
# (§3) Subsequent to standardization, (see SI Methods), the validity of the top 1% of […]^comb’s predictions on the test set of eight diverse proteins was examined. To be conservative, we focused only on those protein/ligand pairs showing single sigmoidal thermal transition curves. The fit to Boltzmann’s equation (Eq. 1) was employed to estimate the melting temperature from the observed intensity, I.
# (§4) (4) I=Imin+Imax-Imin/1+e^Tm-T/a
# (§5) Imin and Imax are the minimum and maximum intensities; a denotes the slope of the curve at the transition midpoint temperate, Tm. To estimate thermodynamic parameters, both van’t Hoff and Gibbs-Helmholtz analyses were done. To estimate the approximate ligand-binding affinity at Tm, Eq. (2) from reference was used with slight modifications; ΔCp is ignored.
# (§6) (5) KLTm=exp-ΔH/R1/Tm-1/To/L
# (§7) KL(Tm) is the ligand association constant and [L] is the free ligand concentration at Tm ([LTm] ~ [L]total, when [L]total > > the total concentration of protein. KD is the inverse of KL(Tm).
# (§8) Thermal unfolding of the eight benchmark proteins was carried out in a 20 μl reaction mix with 100 mM HEPES pH 7.3, 150 mM NaCl, 5 X Sypro orange dye, 10 μM protein and 1 mM of all the predicted ligands.
# [2] = molecular target: T2, 1000001: Carboxy-terminus phosphatase domain of protein tyrosine phosphatase (2NV5) (Mus musculus, UniProt Q64487); assay: Thermal shift (thermal melt) assay, Sypro orange; assay type: binding, M. musculus; design: key to Q (quality score): Q = ΔFmelt/ΔFtotal; 1 = high-quality curve, 0 = no transition; conditions: for Q (quality score): ratio ΔFmelt/ΔFtotal
# T2 construct: The C-terminal phosphatase domain from R. norvegicus (PDB ID: 2NV5) (1000001); New York structural genomics consortium (gift)
# T2 sequence (Q64487 1331-1621): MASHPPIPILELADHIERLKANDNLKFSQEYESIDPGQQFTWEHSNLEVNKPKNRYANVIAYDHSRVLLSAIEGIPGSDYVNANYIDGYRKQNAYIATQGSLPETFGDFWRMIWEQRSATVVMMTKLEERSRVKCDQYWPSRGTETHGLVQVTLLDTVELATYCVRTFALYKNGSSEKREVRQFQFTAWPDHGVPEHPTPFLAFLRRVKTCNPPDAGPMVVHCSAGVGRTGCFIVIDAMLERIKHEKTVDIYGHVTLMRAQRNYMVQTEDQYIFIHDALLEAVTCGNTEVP
# Protocol: as §1, §2, §3, §4, §5, §6, §7, §8
# [3] = system: HCT-116 colon carcinoma cell line; assay: Cytotoxic assay on cancer cell line; assay type: cell-based
# Protocol: Antimicrobial and anti-cancer tests were performed as in [80].
# [4] = molecular target: E. coli dihydrofolate reductase (DHFR) (Escherichia coli, UniProt P0ABQ4); assay: biochemical; assay type: binding; conditions: for Q (quality score): ratio ΔFmelt/ΔFtotal of the melting curve; for ΔTm: thermal shift, in °C (unit assumed)
# Sequence of E. coli dihydrofolate reductase (DHFR) (P0ABQ4 whole entry): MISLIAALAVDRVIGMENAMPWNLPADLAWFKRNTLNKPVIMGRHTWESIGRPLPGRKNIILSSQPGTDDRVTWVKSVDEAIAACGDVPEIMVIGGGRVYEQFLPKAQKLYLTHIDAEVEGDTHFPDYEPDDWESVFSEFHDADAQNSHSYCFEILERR
# Protocol: as §1, with “The dye was excited at 465 nm and emission recorded at 580 nm using the instrument’s filters. A heating ramp of 1°C/min from 25°C to 74°C was used, and one data point acquired for each degree increment.” left out
# Each melting curve was assigned a quality score (Q), the ratio of the melting-associated increase in fluorescence (ΔFmelt) to the total fluorescence range (ΔFtotal). Q = 1 is a high-quality curve, while Q = 0 indicates no thermal transition. Though an arbitrary Q value cutoff was not applied to judge curve quality, the curves were manually curated with Q values reported.
# as §3, §4, §5, §6, §7, §8
# [5] = Table S6, known binders of 1000001 tested on 1000006, in °C (unit assumed)
# [6] = Table S4, protein 1000001, computed from the thermal shifts obtained, read-out: KD (Approx)
# [7] = Table S4, protein 1000001, in °C (unit assumed)
# [8] = Table S6, 1000001, known binders of 1000001, in °C (unit assumed)
# [9] = Table S4, protein 1000006, computed from the thermal shifts obtained, read-out: KD (Approx)
# [10] = Table S4, protein 1000006, in °C (unit assumed)
# [11] = Table S3, computed from the thermal shifts obtained, read-out: KD (Approx)
# [12] = approximate, computed from the thermal shift, read-out: KD
structure (smiles),measurement,setting,value
O=S(=O)(O)c1ccc(N=Nc2ccccc2)cc1 [NSC 1847],ΔTm,[1]; [5],0
same,pKd,[2]; [6],~4.36
same,ΔTm,[2]; [7],4.1
same,Q (quality score),"[2]; Table S4, protein 1000001",0.5
same,ΔTm,[2]; [8],4.23
Nc1cc(-c2ccccc2)ccc1O [NSC 7950],pKd,[1]; [9],~3.57
same,ΔTm,[1]; [10],1.22
same,Q (quality score),"[1]; Table S4, protein 1000006",0.3
COc1cc(C(=O)C(=O)c2ccc(O)c(OC)c2)ccc1O [NSC 16722],pKd,[1]; [9],~3.97
same,ΔTm,[1]; [10],3.09
same,Q (quality score),"[1]; Table S4, protein 1000006",0.4
CCOc1ccc(Nc2c3ccccc3nc3ccccc23)cc1 [NSC 30205],ΔTm,"[1]; Table S6, known binders of 1000001 tested on 1000006",Ambiguous
same,pKd,[2]; [6],~5.16
same,ΔTm,[2]; [7],7.3
same,Q (quality score),"[2]; Table S4, protein 1000001",0.01
same,ΔTm,[2]; [8],9.91
same,HCT-116 (IC-50),"[3]; inhibitory concentration for 50% growth inhibition, listed as 30205",0.146 µg/mL
same,HCT-116 (IC-50),"[3]; inhibitory concentration for 50% growth inhibition, listed as NSC30205",0.15 µg/mL
Cc1ccc(N=Nc2ccc(N)cc2C)c(S(N)(=O)=O)c1 [NSC 45527],ΔTm,[1]; [5],5.48
same,pKd,[2]; [6],~6.25
same,ΔTm,[2]; [7],11.7
same,Q (quality score),"[2]; Table S4, protein 1000001",0.04
same,ΔTm,[2]; [8],11.79
O=C(Nc1ccc(Oc2ccc(NC(=O)Nc3ccc([N+](=O)[O-])cc3)cc2)cc1)Nc1ccc([N+](=O)[O-])cc1 [NSC 80735],pKd,[4]; [11],~5.77
same,Q (quality score),[4]; Table S3,0.3
same,ΔTm,[4]; Table S3,18.16
same,pKd,[4]; [12],5.77
same,HCT-116 (IC-50),[3]; Table S3,10.9
same,IC50 against HCT-116,[3]; as worded,10.9 µg/mL
Nc1cc([N+](=O)[O-])ccc1Nc1ccc(O)cc1 [NSC 92794],pKd,[1]; [9],~3.79
same,ΔTm,[1]; [10],2.26
same,Q (quality score),"[1]; Table S4, protein 1000006",0.004
same,pKd,[1]; [12],3.79
same,HCT-116 (IC-50),"[3]; inhibitory concentration for 50% growth inhibition, listed as 92794",9.78 µg/mL
same,HCT-116 (IC-50),"[3]; inhibitory concentration for 50% growth inhibition, listed as NSC92794",9.8 µg/mL
C1=Cc2ccccc2Nc2ccccc21 [NSC 123458],pKd,[4]; [11],~5.25
same,Q (quality score),[4]; Table S3,0.6
same,ΔTm,[4]; Table S3,14.17
COc1cc(NCc2ccccc2O)c2ncccc2c1 [NSC 130801],pKd,[4]; [11],~4.12
same,Q (quality score),[4]; Table S3,1.1
same,ΔTm,[4]; Table S3,5.84
Nc1ccc(Oc2ccc(N)c([N+](=O)[O-])c2)cc1[N+](=O)[O-] [NSC 133351],pKd,[1]; [9],~6.77
same,Q (quality score),"[1]; Table S4, protein 1000006",0.1
same,pKd,"[1]; approximate, computed from the thermal shift, listed as 133351, read-out: KD",6.77
same,pKd,"[1]; approximate, computed from the thermal shift, listed as NSC133351, read-out: KD",~6.77
same,ΔTm,"[1]; thermal shift, 1 mM ligand, 10 μM protein",16.76 °C
NS(=O)(=O)c1ccc(N=Nc2c(O)c(C(=O)O)cc3ccccc23)cc1 [NSC 134137],ΔTm,[1]; [5],1.36
same,pKd,[2]; [6],~6.39
same,Q (quality score),"[2]; Table S4, protein 1000001",0.01
same,ΔTm,[2]; [8],11.33
same,pKd,"[2]; approximate, computed from the thermal shift, listed as 134137, read-out: KD",6.39
same,pKd,"[2]; approximate, computed from the thermal shift, listed as NSC134137, read-out: KD",~6.39
same,ΔTm,"[2]; thermal shift, 1 mM ligand, 10 μM protein, listed as 134137",12.30 °C
same,ΔTm,"[2]; thermal shift, 1 mM ligand, 10 μM protein, listed as NSC134137",~ 12 °C
COc1cc(N=Nc2ccccc2C(=O)O)ccc1O [NSC 153172],ΔTm,[1]; [5],5.48
same,pKd,[2]; [6],~5.66
same,ΔTm,[2]; [7],9.3
same,Q (quality score),"[2]; Table S4, protein 1000001",0.1
same,ΔTm,[2]; [8],9.70
O=C(O)Cc1ccc(N=Nc2c(O)c(C(=O)O)cc3ccccc23)cc1 [NSC 156563],ΔTm,[1]; [5],5.36
same,pKd,[2]; [6],~5.88
same,ΔTm,[2]; [7],10.2
same,Q (quality score),"[2]; Table S4, protein 1000001",0.004
same,ΔTm,[2]; [8],10.66
CC(C)=C(c1ccc(Cl)cc1)c1c(N)ncnc1N [NSC 157522],pKd,[4]; [11],~4.71
same,Q (quality score),[4]; Table S3,0.4
same,ΔTm,[4]; Table S3,10.13
O=C(Nc1ccc(C(=O)O)c(O)c1)c1ccccc1 [NSC 159686],pKd,[4],~4.90
same,Q (quality score),[4]; Table S3,0.6
N/C(CC(=O)Nc1cc(C(F)(F)F)ccc1Cl)=N\O [NSC 379536],pKd,[4]; [11],~4.54
same,Q (quality score),[4]; Table S3,0.3
same,ΔTm,[4]; Table S3,8.86
"Nc1nc2[nH]cc(CCc3ccc(C(=O)N[C@@H](CCC(=O)O)C(=O)O)cc3)c2c(=O)[nH]1 [NSC 698037, pemetrexed, reference compound]",Q (quality score),[4]; Table S3,1.3
"C#CCC(Cc1cnc2nc(N)nc(N)c2n1)c1ccc(C(=O)N[C@@H](CCC(=O)O)C(=O)O)cc1 (stereo partly shown) [NSC 754230, pralatrexate, reference compound]",pKd,[4]; [11],~6.30
same,Q (quality score),[4]; Table S3,0.1
same,IC50,"[3]; Homo sapiens, HCT-116, inhibitory concentration for 50% growth inhibition, read-out: HCT-116 (IC-50)",< 0.031 µg/mL
